# Laboratory results reported in paper PMC8213057, “Targeting ALK2: An Open Science Approach to Developing Therapeutics for the Treatment of Diffuse Intrinsic Pontine Glioma” (Journal of Medicinal Chemistry, 2020).
# What was measured:
# CAMKK2 = CAMKK2 (Homo sapiens, UniProt Q96RR4); details: 1 μM; Run 1, Run 2
# ITK = target: T1, ITK (Homo sapiens, UniProt Q08881); test: biochemical; details: read-out: % enzyme activity, 1 μM; Run 1, Run 2
# T1 sequence (Q08881 1-620): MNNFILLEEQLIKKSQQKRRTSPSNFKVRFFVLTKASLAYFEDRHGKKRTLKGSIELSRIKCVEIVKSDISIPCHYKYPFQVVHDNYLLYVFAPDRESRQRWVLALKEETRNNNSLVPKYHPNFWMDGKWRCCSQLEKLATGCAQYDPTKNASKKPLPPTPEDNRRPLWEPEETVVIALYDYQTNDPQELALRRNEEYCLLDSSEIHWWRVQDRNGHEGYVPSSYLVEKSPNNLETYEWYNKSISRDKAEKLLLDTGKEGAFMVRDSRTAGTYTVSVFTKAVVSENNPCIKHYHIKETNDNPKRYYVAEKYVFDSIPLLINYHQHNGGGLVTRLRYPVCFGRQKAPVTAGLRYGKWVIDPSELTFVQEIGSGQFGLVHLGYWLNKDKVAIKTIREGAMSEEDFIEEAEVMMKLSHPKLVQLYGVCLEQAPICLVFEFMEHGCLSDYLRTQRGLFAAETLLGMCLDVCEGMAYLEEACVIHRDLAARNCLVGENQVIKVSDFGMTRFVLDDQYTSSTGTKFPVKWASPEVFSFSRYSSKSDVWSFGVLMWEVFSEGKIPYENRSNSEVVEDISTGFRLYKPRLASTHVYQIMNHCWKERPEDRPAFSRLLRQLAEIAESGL
# LCK = LCK (Homo sapiens, UniProt P06239); test: biochemical; details: read-out: % enzyme activity, 1 μM; Run 1, Run 2
# Chain of LCK (P06239 whole entry): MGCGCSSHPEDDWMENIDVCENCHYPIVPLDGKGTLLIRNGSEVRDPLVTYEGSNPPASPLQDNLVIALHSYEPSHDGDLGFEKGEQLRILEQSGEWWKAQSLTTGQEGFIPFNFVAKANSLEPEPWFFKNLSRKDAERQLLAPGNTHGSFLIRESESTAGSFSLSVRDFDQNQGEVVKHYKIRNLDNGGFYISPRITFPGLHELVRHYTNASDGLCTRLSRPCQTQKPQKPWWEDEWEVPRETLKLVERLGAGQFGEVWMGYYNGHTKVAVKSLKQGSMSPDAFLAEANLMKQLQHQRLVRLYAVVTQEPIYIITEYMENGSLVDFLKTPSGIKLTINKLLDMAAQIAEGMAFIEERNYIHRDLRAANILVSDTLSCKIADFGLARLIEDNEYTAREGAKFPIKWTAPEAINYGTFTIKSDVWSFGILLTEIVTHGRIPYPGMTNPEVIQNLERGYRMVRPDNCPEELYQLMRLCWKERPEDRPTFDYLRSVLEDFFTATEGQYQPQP
# CK2a = CK2a (Homo sapiens, UniProt P68400); test: biochemical; details: read-out: % enzyme activity, 1 μM; Run 1, Run 2
# Chain of CK2a (P68400 whole entry): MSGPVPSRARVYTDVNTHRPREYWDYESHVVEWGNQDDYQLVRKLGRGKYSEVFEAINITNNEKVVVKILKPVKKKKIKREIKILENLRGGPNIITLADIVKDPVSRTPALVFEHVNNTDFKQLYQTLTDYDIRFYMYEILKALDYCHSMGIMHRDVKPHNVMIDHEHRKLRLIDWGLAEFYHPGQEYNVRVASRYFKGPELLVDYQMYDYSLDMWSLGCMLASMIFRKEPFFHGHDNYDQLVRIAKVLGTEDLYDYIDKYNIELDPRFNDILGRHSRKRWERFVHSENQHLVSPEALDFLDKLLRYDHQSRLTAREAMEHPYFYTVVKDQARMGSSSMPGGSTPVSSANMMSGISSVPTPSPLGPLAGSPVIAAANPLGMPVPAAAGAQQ
# NIM1 = NIM1 (Homo sapiens, UniProt Q8IY84); test: biochemical; details: read-out: % enzyme activity, 1 μM; Run 1, Run 2
# Chain of NIM1 (Q8IY84 whole entry): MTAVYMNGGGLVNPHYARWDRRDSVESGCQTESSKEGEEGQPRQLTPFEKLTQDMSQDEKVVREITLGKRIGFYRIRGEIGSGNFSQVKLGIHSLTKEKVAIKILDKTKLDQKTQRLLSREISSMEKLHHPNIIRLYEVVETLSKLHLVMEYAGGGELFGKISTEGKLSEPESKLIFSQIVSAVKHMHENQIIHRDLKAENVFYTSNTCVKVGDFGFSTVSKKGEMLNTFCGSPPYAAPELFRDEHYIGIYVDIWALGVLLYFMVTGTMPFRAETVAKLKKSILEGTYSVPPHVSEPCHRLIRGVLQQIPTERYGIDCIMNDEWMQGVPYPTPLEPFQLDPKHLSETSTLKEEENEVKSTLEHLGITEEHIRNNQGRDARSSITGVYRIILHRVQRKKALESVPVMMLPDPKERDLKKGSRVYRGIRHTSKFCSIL
# TYK1/LTK = TYK1/LTK (Homo sapiens, UniProt P29376); test: biochemical; details: read-out: % enzyme activity, 1 μM; Run 1, Run 2
# FES/FPS = FES/FPS (Homo sapiens, UniProt P07332); details: 1 μM; Run 1, Run 2
# Chain of FES/FPS (P07332 whole entry): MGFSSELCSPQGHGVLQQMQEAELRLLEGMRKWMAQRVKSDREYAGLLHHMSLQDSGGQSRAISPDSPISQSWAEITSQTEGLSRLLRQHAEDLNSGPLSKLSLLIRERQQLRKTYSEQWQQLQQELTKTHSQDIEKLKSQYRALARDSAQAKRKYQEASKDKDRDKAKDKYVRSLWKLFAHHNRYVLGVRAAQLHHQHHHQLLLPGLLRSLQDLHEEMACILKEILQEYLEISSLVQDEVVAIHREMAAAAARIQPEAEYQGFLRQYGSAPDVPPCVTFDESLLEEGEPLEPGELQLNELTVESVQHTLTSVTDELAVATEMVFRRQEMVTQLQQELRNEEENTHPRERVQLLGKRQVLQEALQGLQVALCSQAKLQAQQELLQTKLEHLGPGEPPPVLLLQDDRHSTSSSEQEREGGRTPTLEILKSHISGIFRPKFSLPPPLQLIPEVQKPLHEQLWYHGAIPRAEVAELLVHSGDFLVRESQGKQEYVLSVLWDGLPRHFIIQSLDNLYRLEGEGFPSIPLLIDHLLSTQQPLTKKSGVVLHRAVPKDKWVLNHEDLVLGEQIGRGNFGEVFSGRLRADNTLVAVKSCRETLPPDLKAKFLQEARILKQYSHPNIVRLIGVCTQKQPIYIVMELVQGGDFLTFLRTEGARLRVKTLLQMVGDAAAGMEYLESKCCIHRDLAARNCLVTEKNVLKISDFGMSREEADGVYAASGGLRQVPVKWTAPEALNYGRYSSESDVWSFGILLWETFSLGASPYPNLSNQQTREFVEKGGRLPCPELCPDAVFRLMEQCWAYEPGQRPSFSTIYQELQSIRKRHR
# DCAMKL2 = target: T2, DCAMKL2 (Homo sapiens, UniProt Q8N568); test: biochemical; details: read-out: % enzyme activity, 1 μM; Run 1, Run 2
# T2 sequence (Q8N568 1-766): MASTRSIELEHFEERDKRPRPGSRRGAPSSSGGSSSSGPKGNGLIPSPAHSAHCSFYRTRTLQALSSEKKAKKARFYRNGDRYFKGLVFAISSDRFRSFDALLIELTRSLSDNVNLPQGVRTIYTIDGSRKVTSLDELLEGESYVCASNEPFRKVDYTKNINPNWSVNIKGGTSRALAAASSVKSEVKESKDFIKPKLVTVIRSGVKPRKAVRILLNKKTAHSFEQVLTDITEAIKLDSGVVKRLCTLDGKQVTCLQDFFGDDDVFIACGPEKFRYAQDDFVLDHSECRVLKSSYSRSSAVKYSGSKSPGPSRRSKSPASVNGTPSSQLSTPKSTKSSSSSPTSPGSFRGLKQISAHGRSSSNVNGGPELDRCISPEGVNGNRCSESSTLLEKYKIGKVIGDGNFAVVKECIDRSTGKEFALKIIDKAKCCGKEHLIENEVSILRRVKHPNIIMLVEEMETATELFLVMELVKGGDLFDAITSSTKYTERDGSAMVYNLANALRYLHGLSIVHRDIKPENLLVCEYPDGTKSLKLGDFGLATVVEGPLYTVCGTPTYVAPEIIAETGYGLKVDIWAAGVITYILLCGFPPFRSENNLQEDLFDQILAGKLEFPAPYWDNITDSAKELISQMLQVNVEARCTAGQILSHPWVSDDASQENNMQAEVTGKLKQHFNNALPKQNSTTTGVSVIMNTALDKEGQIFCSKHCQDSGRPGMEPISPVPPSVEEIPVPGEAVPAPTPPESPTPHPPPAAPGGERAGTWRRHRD
# EPHB2 = target: T3, EPHB2 (Homo sapiens, UniProt P29323); test: biochemical; details: read-out: % enzyme activity, 1 μM; Run 1, Run 2
# T3 sequence (P29323 19-1055): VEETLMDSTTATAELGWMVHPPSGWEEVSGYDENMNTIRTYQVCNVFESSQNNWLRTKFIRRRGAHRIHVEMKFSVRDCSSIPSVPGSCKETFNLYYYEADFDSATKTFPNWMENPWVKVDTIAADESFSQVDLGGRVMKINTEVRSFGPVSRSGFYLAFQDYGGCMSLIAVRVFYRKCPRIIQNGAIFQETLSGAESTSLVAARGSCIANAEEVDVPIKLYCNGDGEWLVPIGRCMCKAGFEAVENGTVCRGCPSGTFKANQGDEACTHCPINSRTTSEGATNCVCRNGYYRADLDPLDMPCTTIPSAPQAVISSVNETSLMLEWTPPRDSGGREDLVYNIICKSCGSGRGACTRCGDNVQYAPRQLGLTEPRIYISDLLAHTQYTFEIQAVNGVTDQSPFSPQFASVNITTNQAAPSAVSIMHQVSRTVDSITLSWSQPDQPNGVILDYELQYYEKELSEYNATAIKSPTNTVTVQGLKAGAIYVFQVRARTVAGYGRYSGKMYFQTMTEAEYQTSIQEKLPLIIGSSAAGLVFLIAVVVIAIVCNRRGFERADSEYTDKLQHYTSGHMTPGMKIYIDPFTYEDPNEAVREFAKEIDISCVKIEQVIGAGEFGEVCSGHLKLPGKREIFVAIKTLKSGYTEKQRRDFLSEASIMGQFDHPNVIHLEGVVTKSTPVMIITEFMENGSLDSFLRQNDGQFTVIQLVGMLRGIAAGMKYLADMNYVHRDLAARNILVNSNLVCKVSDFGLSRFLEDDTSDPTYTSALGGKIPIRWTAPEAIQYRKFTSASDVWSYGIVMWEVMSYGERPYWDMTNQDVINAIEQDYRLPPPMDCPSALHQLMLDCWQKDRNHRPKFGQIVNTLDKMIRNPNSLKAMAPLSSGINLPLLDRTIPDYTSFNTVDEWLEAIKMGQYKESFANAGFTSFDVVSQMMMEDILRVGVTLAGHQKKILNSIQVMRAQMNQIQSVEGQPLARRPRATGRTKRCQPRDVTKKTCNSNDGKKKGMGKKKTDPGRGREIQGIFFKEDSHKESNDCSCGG
# WNK3 = WNK3 (Homo sapiens, UniProt Q9BYP7); details: 1 μM; Run 1, Run 2
# Chain of WNK3 (Q9BYP7 whole entry, species assumed): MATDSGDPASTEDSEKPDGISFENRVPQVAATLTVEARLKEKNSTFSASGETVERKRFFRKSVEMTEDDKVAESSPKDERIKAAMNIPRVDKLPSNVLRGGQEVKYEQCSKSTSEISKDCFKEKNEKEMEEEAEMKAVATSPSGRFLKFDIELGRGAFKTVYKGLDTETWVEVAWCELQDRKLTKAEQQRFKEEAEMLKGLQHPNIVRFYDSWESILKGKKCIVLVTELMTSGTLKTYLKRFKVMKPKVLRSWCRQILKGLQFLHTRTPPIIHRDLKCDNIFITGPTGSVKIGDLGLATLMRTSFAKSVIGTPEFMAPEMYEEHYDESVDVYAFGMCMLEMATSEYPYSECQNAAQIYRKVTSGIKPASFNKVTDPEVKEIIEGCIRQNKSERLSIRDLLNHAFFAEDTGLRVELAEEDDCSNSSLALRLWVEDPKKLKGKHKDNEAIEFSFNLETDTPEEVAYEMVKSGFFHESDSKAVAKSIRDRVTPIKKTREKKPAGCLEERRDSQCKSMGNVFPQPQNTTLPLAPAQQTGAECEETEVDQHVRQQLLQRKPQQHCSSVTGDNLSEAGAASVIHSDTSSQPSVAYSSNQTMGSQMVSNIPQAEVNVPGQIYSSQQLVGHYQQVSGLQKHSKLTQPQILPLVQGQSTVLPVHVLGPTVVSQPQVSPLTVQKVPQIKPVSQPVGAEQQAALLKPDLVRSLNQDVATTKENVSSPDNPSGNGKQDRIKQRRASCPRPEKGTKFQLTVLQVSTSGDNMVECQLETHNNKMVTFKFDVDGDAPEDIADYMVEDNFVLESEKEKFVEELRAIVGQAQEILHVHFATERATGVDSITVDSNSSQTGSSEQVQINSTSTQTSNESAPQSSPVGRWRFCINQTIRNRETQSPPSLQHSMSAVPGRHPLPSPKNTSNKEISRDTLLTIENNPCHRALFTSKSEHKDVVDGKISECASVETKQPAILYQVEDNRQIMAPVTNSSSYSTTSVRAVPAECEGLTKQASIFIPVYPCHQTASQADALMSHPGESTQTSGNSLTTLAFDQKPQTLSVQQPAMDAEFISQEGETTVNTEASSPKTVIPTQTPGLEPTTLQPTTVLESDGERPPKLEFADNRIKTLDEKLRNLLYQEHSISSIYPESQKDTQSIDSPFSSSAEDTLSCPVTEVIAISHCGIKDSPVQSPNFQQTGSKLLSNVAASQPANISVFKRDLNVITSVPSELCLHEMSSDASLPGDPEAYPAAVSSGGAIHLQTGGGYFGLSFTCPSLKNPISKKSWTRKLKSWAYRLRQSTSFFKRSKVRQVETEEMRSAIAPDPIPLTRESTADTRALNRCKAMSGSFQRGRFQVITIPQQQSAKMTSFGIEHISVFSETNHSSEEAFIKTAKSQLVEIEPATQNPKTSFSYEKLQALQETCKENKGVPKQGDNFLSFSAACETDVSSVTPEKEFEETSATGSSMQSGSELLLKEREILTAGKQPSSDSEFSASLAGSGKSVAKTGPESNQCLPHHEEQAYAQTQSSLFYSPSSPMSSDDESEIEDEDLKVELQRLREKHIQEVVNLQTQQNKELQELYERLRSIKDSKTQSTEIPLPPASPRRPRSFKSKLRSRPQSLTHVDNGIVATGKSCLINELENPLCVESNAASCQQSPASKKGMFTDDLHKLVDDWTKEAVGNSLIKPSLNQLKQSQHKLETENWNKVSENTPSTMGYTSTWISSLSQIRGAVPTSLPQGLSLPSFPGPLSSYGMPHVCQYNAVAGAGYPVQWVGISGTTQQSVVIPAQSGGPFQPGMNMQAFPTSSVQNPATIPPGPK
# SSTK/TSSK6 = SSTK/TSSK6 (Homo sapiens, UniProt Q9BXA6); details: 1 μM; Run 1, Run 2
# Chain of SSTK/TSSK6 (Q9BXA6 whole entry): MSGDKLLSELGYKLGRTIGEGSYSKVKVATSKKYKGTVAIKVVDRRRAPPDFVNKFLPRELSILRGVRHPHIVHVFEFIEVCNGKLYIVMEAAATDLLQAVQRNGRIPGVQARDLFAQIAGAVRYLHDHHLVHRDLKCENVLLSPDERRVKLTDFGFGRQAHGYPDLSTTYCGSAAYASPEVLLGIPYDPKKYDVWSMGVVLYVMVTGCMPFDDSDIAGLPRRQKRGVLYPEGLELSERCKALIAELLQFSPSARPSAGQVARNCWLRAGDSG
# Chain of CAMKK2 (Q96RR4 whole entry): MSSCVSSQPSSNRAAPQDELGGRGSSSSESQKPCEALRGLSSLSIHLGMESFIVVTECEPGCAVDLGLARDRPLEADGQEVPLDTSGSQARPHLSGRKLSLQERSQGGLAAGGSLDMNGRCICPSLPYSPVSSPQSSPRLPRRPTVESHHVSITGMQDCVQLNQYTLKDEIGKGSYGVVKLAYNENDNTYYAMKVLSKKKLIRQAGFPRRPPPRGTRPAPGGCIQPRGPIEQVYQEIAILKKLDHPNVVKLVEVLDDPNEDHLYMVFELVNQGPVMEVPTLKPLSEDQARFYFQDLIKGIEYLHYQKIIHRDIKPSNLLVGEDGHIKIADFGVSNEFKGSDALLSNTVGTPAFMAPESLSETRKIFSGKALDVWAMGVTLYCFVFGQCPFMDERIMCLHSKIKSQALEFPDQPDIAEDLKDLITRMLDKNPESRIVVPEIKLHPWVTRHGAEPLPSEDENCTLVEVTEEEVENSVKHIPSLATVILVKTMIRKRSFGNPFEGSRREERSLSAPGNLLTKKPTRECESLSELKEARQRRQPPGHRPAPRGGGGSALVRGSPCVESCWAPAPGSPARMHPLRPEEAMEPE
compound,measurement,setting,value
"COc1cc(-c2cncc(-c3ccc(N4CCN(C)CC4)cc3)c2C)cc(F)c1C(N)=O [Compound 26a, 2-Fluoro-6-methoxy-4-(4-methyl-5-(4-(4-methylpiperazin-1-yl)phenyl)pyridin-3-yl)benzamide]",% enzyme activity,CAMKK2,70.52%
same,remaining activity at 1 µM,ITK,106%
same,remaining activity at 1 µM,LCK,93.2%
same,remaining activity at 1 µM,CK2a,92.5%
same,remaining activity at 1 µM,NIM1,96.6%
same,remaining activity at 1 µM,TYK1/LTK,99%
same,% enzyme activity,FES/FPS,99.20%
same,remaining activity at 1 µM,DCAMKL2,64.4%
same,remaining activity at 1 µM,EPHB2,93.9%
same,CYP inhibition,CYP1A2,> 50 µM
same,% enzyme activity,WNK3,88.15%
same,% enzyme activity,SSTK/TSSK6,107.86%
"COc1cc(-c2cncc(-c3ccc(N4C[C@@H](C)N(C)[C@@H](C)C4)cc3)c2C)cc(F)c1C(N)=O [Compound 26c, 2-Fluoro-6-methoxy-4-(4-methyl-5-(4-((3R,5S)-3,4,5-trimethylpiperazin-1-yl)phenyl)pyridin-3-yl)benzamide]",% enzyme activity,CAMKK2,75.78%
same,remaining activity at 1 µM,ITK,102%
same,remaining activity at 1 µM,LCK,101%
same,remaining activity at 1 µM,CK2a,87.2%
same,remaining activity at 1 µM,NIM1,98.2%
same,remaining activity at 1 µM,TYK1/LTK,99.3%
same,% enzyme activity,FES/FPS,98.66%
same,remaining activity at 1 µM,DCAMKL2,84.5%
same,remaining activity at 1 µM,EPHB2,98.8%
same,CYP inhibition,CYP1A2,> 50 µM
same,% enzyme activity,WNK3,92.59%
same,% enzyme activity,SSTK/TSSK6,98.04%
